Literature values in US9370632B2, “Nasal treatment delivery device for mixed carbon dioxide and saline” (CLOVER HILL HEALTHCARE, INC., priority 2012, dated 2016).

System: subjects with SAR, nasal allergen challenge (grass or ragweed allergen)

## O=C=O [CO(2), carbon dioxide]
20-second exposure to CO(2) 30 minutes before allergen challenge, compared with no treatment
  ipsilateral secretion weights: numerically reduced
20-second exposure to CO(2) 30 minutes before allergen challenge, compared with no treatment, 12 subjects with SAR, p=0.05
  sneezes: significant reduction
20-second exposure to CO(2) 30 minutes before allergen challenge, compared with no treatment, p=0.01
  bilateral runny nose symptoms: significant reduction
20-second exposure to CO(2) 30 minutes before allergen challenge, compared with no treatment, p=0.04
  contralateral secretion weights (reflex secretory response, primary outcome): significant reduction
After pretreatment with CO(2), increased significantly with sham treatment
  histamine levels in ipsilateral nasal secretions: did not increase
During 20-second intranasal exposure to CO(2)
  sensation reported by subjects during exposure: transient burning sensation
